Results from ChEMBL document CHEMBL5107949, “Design, synthesis, and antibacterial activity of N-(trifluoromethyl)phenyl substituted pyrazole derivatives” (RSC Med Chem, 2021).
In brackets after ≈: the same amount, converted by molar mass. Activity calls are given as the source filed them. The rule behind the calls is not given here.

Experiments:
Staphylococcus aureus [1] = assay: Antibacterial activity against antibiotic susceptible Staphylococcus aureus ATCC 25923 assessed as inhibition of bacterial growth by CLSI protocol based broth microdilution method; assay type: functional
Staphylococcus aureus [2] = assay: Antibacterial activity against antibiotic resistant Staphylococcus aureus ATCC 33591 assessed as inhibition of bacterial growth by CLSI protocol based broth microdilution method; assay type: functional
Staphylococcus aureus [3] = assay: Antibacterial activity against antibiotic resistant Staphylococcus aureus ATCC 33592 assessed as inhibition of bacterial growth by CLSI protocol based broth microdilution method; assay type: functional
Staphylococcus aureus [4] = assay: Antibacterial activity against antibiotic resistant Staphylococcus aureus BAA-2312 assessed as inhibition of bacterial growth by CLSI protocol based broth microdilution method; assay type: functional
Staphylococcus aureus [5] = assay: Antibacterial activity against antibiotic resistant Staphylococcus aureus ATCC 700699 assessed as inhibition of bacterial growth by CLSI protocol based broth microdilution method; assay type: functional
[6] = system: Staphylococcus epidermidis; assay: Antibacterial activity against antibiotic resistant Staphylococcus epidermidis ATCC 700296 assessed as inhibition of bacterial growth by CLSI protocol based broth microdilution method; assay type: functional
Bacillus subtilis = assay: Antibacterial activity against antibiotic resistant Bacillus subtilis ATCC 6623 assessed as inhibition of bacterial growth by CLSI protocol based broth microdilution method; assay type: functional
Enterococcus faecalis [7] = assay: Antibacterial activity against antibiotic susceptible Enterococcus faecalis ATCC 29212 assessed as inhibition of bacterial growth by CLSI protocol based broth microdilution method; assay type: functional
Enterococcus faecium [8] = assay: Antibacterial activity against vancomycin resistant Enterococcus faecium ATCC 700221 assessed as inhibition of bacterial growth by CLSI protocol based broth microdilution method; assay type: functional
[9] = Cytotoxicity against human HEK293 cells reduction in cell viability incubated for 24 hrs by resazurin cell viability assay; assay type: toxicity, cell-based
Enterococcus faecalis [10] = assay: Anti-biofilm activity against Enterococcus faecalis ATCC 29212 assessed as eradication of biofilm formation incubated for 24 hrs by Calgary biofilm device assay; assay type: functional
Staphylococcus aureus [11] = assay: Anti-biofilm activity against Staphylococcus aureus ATCC 25923 assessed as eradication of biofilm formation incubated for 24 hrs by Calgary biofilm device assay; assay type: functional; settings: Staphylococcus aureus, ATCC 25923
Staphylococcus aureus [12] = assay: Bactericidal activity against Staphylococcus aureus ATCC 700699 assessed as bacteria elimination at 4 times MIC and measured after 10 hrs by time-kill assay; assay type: functional, organism-based
Enterococcus faecalis [13] = assay: Antibacterial activity against Enterococcus faecalis clinical isolate 1088051 assessed as inhibition of bacterial growth by CLSI protocol based broth microdilution method; assay type: functional
Enterococcus faecalis [14] = assay: Antibacterial activity against Enterococcus faecalis clinical isolate 1091563 assessed as inhibition of bacterial growth by CLSI protocol based broth microdilution method; assay type: functional
Enterococcus faecalis [15] = assay: Antibacterial activity against Enterococcus faecalis clinical isolate 1091720 assessed as inhibition of bacterial growth by CLSI protocol based broth microdilution method; assay type: functional
Enterococcus faecalis [16] = assay: Antibacterial activity against Enterococcus faecalis clinical isolate 1094112 assessed as inhibition of bacterial growth by CLSI protocol based broth microdilution method; assay type: functional
Enterococcus faecalis [17] = assay: Antibacterial activity against Enterococcus faecalis clinical isolate 1100440 assessed as inhibition of bacterial growth by CLSI protocol based broth microdilution method; assay type: functional
Enterococcus faecium [18] = assay: Antibacterial activity against Enterococcus faecium clinical isolate 1088168 assessed as inhibition of bacterial growth by CLSI protocol based broth microdilution method; assay type: functional
Enterococcus faecium [19] = assay: Antibacterial activity against Enterococcus faecium clinical isolate 1088228 assessed as inhibition of bacterial growth by CLSI protocol based broth microdilution method; assay type: functional
Enterococcus faecium [20] = assay: Antibacterial activity against Enterococcus faecium clinical isolate 1088925 assessed as inhibition of bacterial growth by CLSI protocol based broth microdilution method; assay type: functional
Enterococcus faecium [21] = assay: Antibacterial activity against Enterococcus faecium clinical isolate 1089544 assessed as inhibition of bacterial growth by CLSI protocol based broth microdilution method; assay type: functional
Enterococcus faecium [22] = assay: Antibacterial activity against Enterococcus faecium clinical isolate 1091282 assessed as inhibition of bacterial growth by CLSI protocol based broth microdilution method; assay type: functional
Enterococcus faecalis [23] = assay: Anti-biofilm activity against Enterococcus faecalis ATCC 29212 assessed as minimum bactericidal concentration incubated for 24 hrs by Calgary biofilm device assay; settings: ATCC 29212, 24 h
Staphylococcus aureus [24] = assay: Antibacterial activity against Staphylococcus aureus ATCC 25923 assessed as minimum bactericidal concentration incubated for 24 hrs by Calgary biofilm device assay; settings: ATCC 25923, 24 h
Staphylococcus aureus [25] = assay: Bactericidal activity against Staphylococcus aureus ATCC 700699 assessed as bacteria elimination at 4 times MIC and measured after 6 hrs by time-kill assay; assay type: functional
Staphylococcus aureus [26] = assay: Bactericidal activity against Staphylococcus aureus ATCC 700699 persisters assessed as log reduction in colony forming unit at 64 times MIC after 4 hrs by colony counting method; assay type: functional, organism-based

| Compound | MIC (Staphylococcus aureus [1]) [µg/mL] | MIC (Staphylococcus aureus [2]) [µg/mL] | MIC (Staphylococcus aureus [3]) [µg/mL] | MIC (Staphylococcus aureus [4]) [µg/mL] | MIC (Staphylococcus aureus [5]) [µg/mL] | MIC [6] [µg/mL] | MIC (Bacillus subtilis) [µg/mL] | MIC (Enterococcus faecalis [7]) [µg/mL] | MIC (Enterococcus faecium [8]) [µg/mL] | further results |
| --- | --- | --- | --- | --- | --- | --- | --- | --- | --- | --- |
| CC(C)(C)c1ccc(NCc2cn(-c3ccc(C(F)(F)F)cc3)nc2-c2ccc(C(=O)O)cc2)cc1 | 1.56 (≈ 3.16 µM) | 3.12 (≈ 6.32 µM) | 1.56 (≈ 3.16 µM) | 3.12 (≈ 6.32 µM) | 1.56 (≈ 3.16 µM) | 3.12 (≈ 6.32 µM) | 1.56 (≈ 3.16 µM) | 3.12 (≈ 6.32 µM) | 1.56 (≈ 3.16 µM) | IC50 at 24 h [9]: 8 µg/mL (≈ 16.2 µM) |
| CN[C@H](CC(C)C)C(=O)N[C@H]1C(=O)N[C@@H](CC(N)=O)C(=O)N[C@H]2C(=O)N[C@H]3C(=O)N[C@H](C(=O)N[C@H](C(=O)O)c4cc(O)cc(O)c4-c4cc3ccc4O)[C@H](O)c3ccc(c(Cl)c3)Oc3cc2cc(c3O[C@@H]2O[C@H](CO)[C@@H](O)[C@H](O)[C@H]2O[C@H]2C[C@](C)(N)[C@H](O)[C@H](C)O2)Oc2ccc(cc2Cl)[C@H]1O [VANCOMYCIN] | 0.78 (≈ 0.538 µM) | – | – | 0.78 (≈ 0.538 µM) | 3.12 (≈ 2.15 µM) | 3.12 (≈ 2.15 µM) | 0.39 (≈ 0.269 µM) | 3.12 (≈ 2.15 µM) | > 50 | MBEC (Enterococcus faecalis [10]): >50 µg/mL; MBEC (Staphylococcus aureus [11]): > 50 µg/mL; Activity (Staphylococcus aureus [12]): Active; MIC (Enterococcus faecalis [13]): > 32 µg/mL; MIC (Enterococcus faecalis [14]): > 32 µg/mL; MIC (Enterococcus faecalis [15]): > 32 µg/mL; MIC (Enterococcus faecalis [16]): > 32 µg/mL; MIC (Enterococcus faecalis [17]): > 32 µg/mL; MIC (Enterococcus faecium [18]): > 32 µg/mL; MIC (Enterococcus faecium [19]): > 32 µg/mL; MIC (Enterococcus faecium [20]): > 32 µg/mL; MIC (Enterococcus faecium [21]): > 32 µg/mL; MIC (Enterococcus faecium [22]): > 32 µg/mL; MBC (Enterococcus faecalis [23]): 25 µg/mL (≈ 17.3 µM); MBC (Staphylococcus aureus [24]): 6.25 µg/mL (≈ 4.31 µM) |
| CC(C)c1ccc(NCc2cn(-c3ccc(C(F)(F)F)cc3)nc2-c2ccc(C(=O)O)cc2)cc1 | 3.12 (≈ 6.51 µM) | 12.5 (≈ 26.1 µM) | 3.12 (≈ 6.51 µM) | 6.25 (≈ 13 µM) | 3.12 (≈ 6.51 µM) | 12.5 (≈ 26.1 µM) | 3.12 (≈ 6.51 µM) | 6.25 (≈ 13 µM) | 3.12 (≈ 6.51 µM) | – |
| O=C(O)c1ccc(-c2nn(-c3ccc(C(F)(F)F)cc3)cc2CNc2cccc(Br)c2)cc1 | 3.12 (≈ 6.04 µM) | 3.12 (≈ 6.04 µM) | 6.25 (≈ 12.1 µM) | 6.25 (≈ 12.1 µM) | 3.12 (≈ 6.04 µM) | 12.5 (≈ 24.2 µM) | 6.25 (≈ 12.1 µM) | 12.5 (≈ 24.2 µM) | 6.25 (≈ 12.1 µM) | – |
| O=C(O)c1ccc(-c2nn(-c3ccc(C(F)(F)F)cc3)cc2CNc2ccc(Cl)cc2)cc1 | 6.25 (≈ 13.2 µM) | 6.25 (≈ 13.2 µM) | 6.25 (≈ 13.2 µM) | 12.5 (≈ 26.5 µM) | 6.25 (≈ 13.2 µM) | 12.5 (≈ 26.5 µM) | 6.25 (≈ 13.2 µM) | 12.5 (≈ 26.5 µM) | 6.25 (≈ 13.2 µM) | – |
| O=C(O)c1ccc(-c2nn(-c3ccc(C(F)(F)F)cc3)cc2CNc2ccc(C(F)(F)F)cc2)cc1 | 12.5 (≈ 24.7 µM) | 12.5 (≈ 24.7 µM) | 6.25 (≈ 12.4 µM) | 12.5 (≈ 24.7 µM) | 3.12 (≈ 6.17 µM) | 12.5 (≈ 24.7 µM) | 6.25 (≈ 12.4 µM) | 25 (≈ 49.5 µM) | 12.5 (≈ 24.7 µM) | – |
| GENTAMICIN | – | – | – | – | – | – | – | – | – | Activity (Staphylococcus aureus [25]): > 99.9%; log(activity) (Staphylococcus aureus [26]): 1 |
| O=C(O)c1ccc(-c2nn(-c3ccc(C(F)(F)F)cc3)cc2CNc2ccc(Br)cc2)cc1 | 6.25 (≈ 12.1 µM) | 6.25 (≈ 12.1 µM) | 3.12 (≈ 6.04 µM) | 6.25 (≈ 12.1 µM) | 3.12 (≈ 6.04 µM) | 12.5 (≈ 24.2 µM) | 3.12 (≈ 6.04 µM) | 6.25 (≈ 12.1 µM) | 6.25 (≈ 12.1 µM) | – |
